{"source": "patent US12403116B2", "about": "“Hydroxypentyl benzoic acid diester compound, and preparation method and pharmaceutical application thereof” (CHINESE ACADEMY OF MEDICAL SCIENCES INSTITUTE OF MEDICINAL …, priority 2022, dated 2025)", "format_in_all_cases": "in vivo, rat", "key": {"[1]": {"system": "rats with middle cerebral artery occlusion (MCAO) model", "test": "Pre-experiments: reduction of cerebral infarction area in MCAO model rats", "settings": "result in words; C compared with B, D compared among 1:2 conjugates", "excerpt": "Based on the effects of both butylphthalide and dexborneol on improving cerebral circulation and protecting cardio cerebral vessels, the inventor team of this application adopted progressive pre-experiments. First, butylphthalide and dexborneol were simply combined in a molar ratio 1:1 to form a composition."}, "MCAO/R model rats [2]": {"system": "MCAO/R model rats", "test": "Cerebral infarction area (TTC staining) in MCAO/R model rats", "settings": "for efficiency (vs NBP model group) / cerebral infarction area compared with the NBP group: NBP 5 mg/kg; for infarction area (%): 24 hours of reperfusion, TTC staining; for cerebral infarction area compared with the NBP group: result in words; for efficiency (vs L-NBP model group): L-NBP 2.5 mg/kg", "procedure": "(§1) • SHAM group: sham surgery group • Middle cerebral artery occlusion (MCAO) model group • Butylphthalide (NBP): 5 mg/kg • Levobutylphthalide (L-NBP): 2.5 mg/kg • NRB (Compound 1): 15 mg/kg (equivalent to a dose of 4.9 mg/kg of NBP through conversion) • Low dose of L-NRB (compound 2): 7.5 mg/kg (equivalent to a dose of 2.45 mg/kg of L-NBP through conversion) • High dose of L-NRB (compound 2): 15 mg/kg (equivalent to a dose of 4.9 mg/kg of L-NBP through conversion) • Aspirin group (ASP): 10 mg/kg 2. Administration Method\n(§2) The rats in the sham surgery group and the MCAO model group were administered the same amount of normal saline by intraperitoneal administration for 5 consecutive days before modeling, and then the MCAO operation was performed.\n(§3) The middle cerebral artery occlusion (MCAO) model was made by thread-occlusion method. The operation process was strictly conducted in aseptic mode. The main operation process was as follows: the rat was anesthetized by intraperitoneal injection of chloral hydrate, the common carotid artery (CCA), external carotid artery (ECA) and internal carotid artery (ICA) were separated, the common carotid artery was clamped with a microarterial clamp, and the branches of the external carotid artery were electrocoagulated with a bipolar electrocoagulation pen. The main trunk of the external carotid artery was separated and ligated at a distance of 3-4 mm from the bifurcation of the common carotid artery. The internal carotid artery was temporarily clamped with a micro artery clamp. A small incision into the external carotid artery was cut with an ophthalmic scissors, and a 4-0 monofilament nylon thread coated with methylpolysiloxane was inserted. A loose knot was made at the incision of the external carotid artery to block the blood reflux of the internal carotid artery. The micro artery clamp of the internal carotid artery was removed, and the nylon thread is gently pushed into the internal carotid artery to reach the anterior cerebral artery in the skull, to block the opening of the middle cerebral artery (MCA), and the insert depth is approximately 18-22 mm. The microarterial clamp of the common carotid artery was removed, the subcutaneous tissue and skin were sutured layer by layer after disinfection, and the nylon thread was slowly draw out at 2 hours after operation, and the reperfusion was conducted. In the sham surgery group, all operations were the same except that nylon thread was not inserted. The rectal temperature of all rats was maintained at 37° C. throughout the entire experimental process.\nAfter 24 hours of reperfusion, the cerebral infarction area was measured using tetrazolium red (TTC) staining. The rats were killed by cutting the neck, and the whole brain was quickly taken out. After being placed in the refrigerator at −20° C. for a short time and placed on the ice plate, and the olfactory bulb was removed. The forebrain was cut into six slices with a thickness of 2 mm along the coronal plane. The brain slices were placed in 1.5 mL of 2% TTC solution and incubated in dark for 30 minutes. Then the brain slices were fixed in 10% paraformaldehyde overnight, and then photographed for analysis. Use Image-J software to measure and calculate the volume of cerebral infarction."}, "MCAO/R model rats [3]": {"system": "MCAO/R model rats", "test": "Neurological function evaluation (Longa 5-level score) in MCAO/R model rats", "settings": "for neurological function scores: 24 hours of reperfusion, Longa score; for neurological function scores compared with the NBP group / efficiency (vs NBP group): NBP 5 mg/kg; for neurological function scores compared with the NBP group: result in words; for efficiency (vs L-NBP group): L-NBP 2.5 mg/kg", "procedure": "as §1, §2, §3\nAfter 24 hours of reperfusion, all rats were evaluated for neurobehavioral scores using the Longa 5-level scoring method. Longa scoring standard: 0, normal, without neurological impairment; 1, left forelimb extension disorder, weakened function; 2, circling to the left, paralysis of the left forelimb and severe impairment of function, and the rat keeps twisting towards the damaged area after lifting the rat's tail; 3, when walking, tilt to the left; 4, limb paralysis, unconscious consciousness."}, "[4]": {"settings": "cerebral infarction area, dose 15 mg/kg"}, "[5]": {"settings": "neurological function score, dose 15 mg/kg"}, "[6]": {"settings": "cerebral infarction area, dose 7.5 mg/kg"}, "[7]": {"settings": "neurological function score, dose 7.5 mg/kg"}, "[8]": {"settings": "neurological function score, dose 2.5 mg/kg"}}, "data": [{"smiles": "CCCCC(OC(C)=O)c1ccccc1C(=O)O[C@@H]1C[C@@H]2CC[C@@]1(C)C2(C)C", "note": "(some centres unmarked) [formula B]", "values": [{"measurement": "activity (pre-experiments, comparison between conjugates)", "setting": "[1]", "result": "only slightly improved"}]}, {"smiles": "CCCCC(OC(=O)CCC(=O)O[C@@H]1C[C@@H]2CC[C@@]1(C)C2(C)C)c1ccccc1C(=O)O[C@@H]1C[C@@H]2CC[C@@]1(C)C2(C)C", "note": "(some centres unmarked) [formula C]", "values": [{"measurement": "activity (pre-experiments, comparison between conjugates)", "setting": "[1]", "result": "significantly better"}]}, {"smiles": "CCCCC(OC(=O)CCC(=O)O[C@@H]1C[C@@H]2CC[C@@]1(C)C2(C)C)c1ccccc1C(=O)O[C@@H]1C[C@@H]2CC[C@@]1(C)C2(C)C", "note": "(some centres unmarked) [NRB]", "values": [{"measurement": "efficiency (vs NBP model group)", "setting": "MCAO/R model rats [2]; [4]", "result": 44.8, "unit": "%"}, {"measurement": "infarction inhibition rate (vs model group)", "setting": "MCAO/R model rats [2]; dose 15 mg/kg", "result": 63.7, "unit": "%"}, {"measurement": "infarction area (%)", "setting": "MCAO/R model rats [2]; dose 15 mg/kg", "result": "10.7 ± 7.9**$ %"}, {"measurement": "cerebral infarction area compared with the NBP group", "setting": "MCAO/R model rats [2]; dose 15 mg/kg", "result": "significant reductions"}, {"measurement": "neurological function scores", "setting": "MCAO/R model rats [3]; dose 15 mg/kg", "result": "1.3 ± 0.5**$"}, {"measurement": "neurological function scores compared with the NBP group", "setting": "MCAO/R model rats [3]; dose 15 mg/kg", "result": "significant reductions"}, {"measurement": "inhibition rate (vs model group)", "setting": "MCAO/R model rats [3]; [5]", "result": 61.8, "unit": "%"}, {"measurement": "efficiency (vs NBP group)", "setting": "MCAO/R model rats [3]; [5]", "result": 43.5, "unit": "%"}]}, {"smiles": "CCCCC1OC(=O)c2ccccc21", "note": "(racemic) [NBP, (R/S)-3-n-butyl-1(3H)-isobenzofuranone, reference compound]", "values": [{"measurement": "infarction inhibition rate (vs model group)", "setting": "MCAO/R model rats [2]; dose 5 mg/kg", "result": 34.2, "unit": "%"}, {"measurement": "infarction area (%)", "setting": "MCAO/R model rats [2]; dose 5 mg/kg", "result": "19.4 ± 7.0", "unit": "%"}, {"measurement": "neurological function scores", "setting": "MCAO/R model rats [3]; dose 5 mg/kg", "result": "2.3 ± 1.0"}, {"measurement": "inhibition rate (vs model group)", "setting": "MCAO/R model rats [3]; neurological function score, dose 5 mg/kg", "result": 32.4, "unit": "%"}]}, {"smiles": "CCCC[C@H](OC(=O)CCC(=O)O[C@@H]1C[C@@H]2CC[C@@]1(C)C2(C)C)c1ccccc1C(=O)O[C@@H]1C[C@@H]2CC[C@@]1(C)C2(C)C", "note": "[formula D]", "values": [{"measurement": "activity (pre-experiments, comparison between conjugates)", "setting": "[1]", "result": "superior"}]}, {"smiles": "CCCC[C@H](OC(=O)CCC(=O)OC1CC2CCC1(C)C2(C)C)c1ccccc1C(=O)OC1CC2CCC1(C)C2(C)C", "note": "(stereo in doubt) [L-NRB]", "values": [{"measurement": "efficiency (vs L-NBP model group)", "setting": "MCAO/R model rats [2]; [6]", "result": 29.1, "unit": "%"}, {"measurement": "efficiency (vs NBP model group)", "setting": "MCAO/R model rats [2]; [6]", "result": 42.3, "unit": "%"}, {"measurement": "Efficiency (vs ASP model group)", "setting": "MCAO/R model rats [2]; cerebral infarction area, dose 15 mg/kg, ASP 10 mg/kg", "result": 56.6, "unit": "%"}, {"measurement": "efficiency (vs L-NBP model group)", "setting": "MCAO/R model rats [2]; [4]", "result": 58.2, "unit": "%"}, {"measurement": "efficiency (vs NBP model group)", "setting": "MCAO/R model rats [2]; [4]", "result": 66.0, "unit": "%"}, {"measurement": "infarction inhibition rate (vs model group)", "setting": "MCAO/R model rats [2]; dose 7.5 mg/kg", "result": 62.0, "unit": "%"}, {"measurement": "infarction area (%)", "setting": "MCAO/R model rats [2]; dose 7.5 mg/kg", "result": "11.2 ± 4.4**$ %"}, {"measurement": "cerebral infarction area compared with the NBP group", "setting": "MCAO/R model rats [2]; dose 7.5 mg/kg, p<0.05", "result": "significant reductions"}, {"measurement": "infarction inhibition rate (vs model group)", "setting": "MCAO/R model rats [2]; dose 15 mg/kg", "result": 77.6, "unit": "%"}, {"measurement": "infarction area (%)", "setting": "MCAO/R model rats [2]; dose 15 mg/kg", "result": "6.6 ± 3.5**$$&& %"}, {"measurement": "cerebral infarction area compared with the NBP group", "setting": "MCAO/R model rats [2]; dose 15 mg/kg", "result": "significant reductions"}, {"measurement": "neurological function scores", "setting": "MCAO/R model rats [3]; dose 7.5 mg/kg", "result": "1.4 ± 0.7**$"}, {"measurement": "neurological function scores compared with the NBP group", "setting": "MCAO/R model rats [3]; dose 7.5 mg/kg, p<0.05", "result": "significant reductions"}, {"measurement": "neurological function scores", "setting": "MCAO/R model rats [3]; dose 15 mg/kg", "result": "1.1 ± 0.4**$$&"}, {"measurement": "neurological function scores compared with the NBP group", "setting": "MCAO/R model rats [3]; dose 15 mg/kg", "result": "significant reductions"}, {"measurement": "inhibition rate (vs model group)", "setting": "MCAO/R model rats [3]; [7]", "result": 58.8, "unit": "%"}, {"measurement": "efficiency (vs L-NBP group)", "setting": "MCAO/R model rats [3]; [7]", "result": 22.2, "unit": "%"}, {"measurement": "efficiency (vs NBP group)", "setting": "MCAO/R model rats [3]; [7]", "result": 39.1, "unit": "%"}, {"measurement": "inhibition rate (vs model group)", "setting": "MCAO/R model rats [3]; [5]", "result": 67.6, "unit": "%"}, {"measurement": "efficiency (vs ASP group)", "setting": "MCAO/R model rats [3]; neurological function score, dose 15 mg/kg, ASP 10 mg/kg", "result": 31.3, "unit": "%"}, {"measurement": "efficiency (vs L-NBP group)", "setting": "MCAO/R model rats [3]; [5]", "result": 38.9, "unit": "%"}, {"measurement": "efficiency (vs NBP group)", "setting": "MCAO/R model rats [3]; [5]", "result": 52.2, "unit": "%"}]}, {"smiles": "CCCC[C@@H]1OC(=O)c2ccccc21", "note": "[L-NBP, Levobutylphthalide, reference compound]", "values": [{"measurement": "efficiency (vs NBP model group)", "setting": "MCAO/R model rats [2]; cerebral infarction area, dose 2.5 mg/kg", "result": 18.6, "unit": "%"}, {"measurement": "infarction inhibition rate (vs model group)", "setting": "MCAO/R model rats [2]; dose 2.5 mg/kg", "result": 46.4, "unit": "%"}, {"measurement": "infarction area (%)", "setting": "MCAO/R model rats [2]; dose 2.5 mg/kg", "result": "15.8 ± 6.7", "unit": "%"}, {"measurement": "neurological function scores", "setting": "MCAO/R model rats [3]; dose 2.5 mg/kg", "result": "1.8 ± 0.6"}, {"measurement": "inhibition rate (vs model group)", "setting": "MCAO/R model rats [3]; [8]", "result": 47.1, "unit": "%"}, {"measurement": "efficiency (vs NBP group)", "setting": "MCAO/R model rats [3]; [8]", "result": 21.7, "unit": "%"}]}, {"smiles": "CC(=O)Oc1ccccc1C(=O)O", "note": "[ASP, Aspirin, reference compound]", "values": [{"measurement": "infarction inhibition rate (vs model group)", "setting": "MCAO/R model rats [2]; dose 10 mg/kg", "result": 48.5, "unit": "%"}, {"measurement": "infarction area (%)", "setting": "MCAO/R model rats [2]; dose 10 mg/kg", "result": "15.2 ± 7.0", "unit": "%"}, {"measurement": "neurological function scores", "setting": "MCAO/R model rats [3]; dose 10 mg/kg", "result": "1.6 ± 0.5"}, {"measurement": "inhibition rate (vs model group)", "setting": "MCAO/R model rats [3]; neurological function score, dose 10 mg/kg", "result": 52.9, "unit": "%"}]}]}
